Values quoted from earlier work as cited in patent US7625919B2, “4-azasteroid derivatives as androgen receptor modulators” (priority 2002, dated 2009).

Legend:
[1] = after 7 years of treatment
[2] = postmenopausal osteoporotic women, median of 22 months of treatment

Q: For `NCCCC(O)(P(=O)([O-])O)P(=O)(O)O.O.O.O.[Na+]` [alendronate, (4-amino-1-hydroxybutylidene)-bis-phosphonate monosodium trihydrate], which “increase in spinal BMD” value [1] is on record?
A: 11%

Q: With “hPTH(1-34): human parathyroid hormone 1-34 fragment (SVSEIQLMHNLGKHLNSMERVEWLRKKLQDVHNF; Parathyroid hormone; UniProt P01270 32-65, looked up, fragment)” as the compound, how does the “reduction in nonvertebral fractures” value [2] read?
A: 54%

Q: What about the “reduction in spine fractures” value [2] of the same compound?
A: ≥ 65%
